Assay results reported in US12559474B2, “Triazine derivatives having virus replication inhibitory activity and pharmaceutical composition comprising the same” (priority 2021, dated 2026).
pEC50, pIC50: −log10 of the molar value. Where two headings read alike, the source gives them in different places.

Assays:
SARS-CoV-2 = assay: microbe, parasite or virus in culture; format: cell-based; settings: 50% SARS-CoV-2 infected cell death inhibitory concentration, VeroE6/TMPRSS2 cells, 3 days culture
SARS-CoV-2 3CL protease = SARS-CoV-2 3CL protease (Severe acute respiratory syndrome coronavirus 2, UniProt P0DTD1); assay: biochemical; settings: 50% SARS-CoV-2 3CL protease inhibitory concentration, read-out: IC50
[1] = Severe acute respiratory syndrome coronavirus 2, VeroE6/TMPRSS2, 72 h, CellTiter-Glo 2.0
[2] = Severe acute respiratory syndrome coronavirus 2, VeroE6/TMPRSS2, 72 h, class symbols

SMILES	pEC50 (SARS-CoV-2; [1])	pIC50 (SARS-CoV-2 3CL protease; RapidFire MS)	pEC50 (SARS-CoV-2; [2])	pIC50 (SARS-CoV-2 3CL protease; given as class symbols)	pEC50 (SARS-CoV-2; class symbols)
Cn1cc2cc(Nc3nc(=O)n(-c4cncc(Cl)c4)c(=O)n3Cc3cc(F)c(F)c(Cl)c3)ccc2n1 [II-0109]	6.10	7.40	–	–	–
Cc1cncc(-n2c(=O)nc(Nc3cc4oc(C)nc4cc3C)n(Cc3ccc(F)c(C#N)c3)c2=O)c1 [II-0110]	–	–	> 6.00	> 7.00	–
Cc1cncc(-n2c(=O)nc(Nc3ccc4nn(C)cc4c3)n(Cc3cc(F)c(F)cc3F)c2=O)c1 [II-0111]	5.72	7.11	–	–	–
Cn1cnc(Cn2c(=O)nc(Nc3cc4cn(CC(F)F)nc4cc3F)n(Cc3cc(F)c(F)c(F)c3)c2=O)n1 [II-0112]	–	–	5.00 to 6.00	> 7.00	–
Cc1cncc(-n2c(=O)nc(Nc3cc4c(cc3Cl)OC(C)C4)n(Cc3ccc(F)c(C#N)c3)c2=O)c1 (stereo not drawn) [II-0114]	–	–	> 6.00	> 7.00	–
Cc1cncc(-n2c(=O)nc(Nc3cc4cn(C)nc4cc3F)n(Cc3cc(C#N)ccc3C)c2=O)c1 [II-0115]	–	–	> 6.00	> 7.00	–
Cc1cncc(-n2c(=O)nc(Nc3cc4c(cc3Cl)OC(C)C4)n(Cc3ccc(F)c(C#N)c3)c2=O)c1 (stereo not drawn) [II-0117]	–	–	–	> 7.00	> 6.00
CCn1cc2cc(Nc3nc(=O)n(-c4cncc(C)c4)c(=O)n3Cc3ccc(F)c(C#N)c3)c(Cl)cc2n1 [II-0118]	6.92	8.35	–	–	–
Cc1cncc(-n2c(=O)nc(Nc3cc4cn(C)nc4cc3Cl)n(Cc3cc(F)c(F)c(Cl)c3)c2=O)c1 [II-0119]	6.74	8.05	–	–	–
Cn1cc2cc(Nc3nc(=O)n(-c4cncc(Cl)c4)c(=O)n3Cc3ccc(F)c(C#N)c3)c(Cl)cc2n1 [II-0120]	6.90	8.05	–	–	–
Cc1cncc(-n2c(=O)nc(Nc3cc4c(cc3Cl)OC(C)C4)n(Cc3ccc(F)c(C#N)c3)c2=O)c1 (stereo not drawn) [II-0121]	–	–	–	> 7.00	> 6.00
COc1cc(C)c(Nc2nc(=O)n(-c3cncc(C)c3)c(=O)n2Cc2ccc(F)c(C#N)c2)cn1 [II-0122]	–	–	5.00 to 6.00	> 7.00	–
Cc1cncc(-n2c(=O)nc(Nc3cnc(OCC(F)F)cc3C)n(Cc3ccc(F)c(C#N)c3)c2=O)c1 [II-0123]	–	–	5.00 to 6.00	> 7.00	–
Cc1cncc(-n2c(=O)nc(Nc3ccc4nn(C)cc4c3)n(Cc3cc(C#N)ccc3C)c2=O)c1 [II-0125]	6.66	8.32	–	–	–
CNc1nc2cc(Cl)c(Nc3nc(=O)n(-c4cncc(Cl)c4)c(=O)n3Cc3cc(C#N)c(F)cn3)cc2s1 [II-0126]	–	–	5.00 to 6.00	> 7.00	–
CCn1cc2cc(Nc3nc(=O)n(-c4cncc(Cl)c4)c(=O)n3Cc3cc(C#N)c(F)cn3)c(Cl)cc2n1 [II-0127]	–	–	5.00 to 6.00	> 7.00	–
N#Cc1cc(Cn2c(Nc3ccc4nc(NCC(F)F)sc4c3)nc(=O)n(-c3cncc(Cl)c3)c2=O)ccc1F [II-0129]	–	–	5.00 to 6.00	> 7.00	–
Cc1cncc(-n2c(=O)nc(Nc3cc4cn(C)nc4cc3Cl)n(Cc3cc(F)c(F)c(C#N)c3)c2=O)c1 [II-0130]	7.02	8.72	–	–	–
Cc1cncc(-n2c(=O)nc(Nc3cc4c(cc3Cl)OCC4)n(Cc3cc(F)c(F)c(C#N)c3)c2=O)c1 [II-0131]	–	–	> 6.00	> 7.00	–
Cn1cnc(Cn2c(=O)nc(Nc3cc4cn(CC(=O)N5CCOCC5)nc4cc3Cl)n(Cc3cc(Cl)c(F)cc3F)c2=O)n1 [II-0132]	4.30	8.60	–	–	–
Cc1cncc(-n2c(=O)nc(Nc3cc4cn(CCO)nc4cc3Cl)n(Cc3ccc(F)c(C#N)c3)c2=O)c1 [II-0140]	–	–	5.00 to 6.00	> 7.00	–
Cc1cncc(-n2c(=O)nc(Nc3cc4c(cc3Cl)OCCC4)n(Cc3ccc(F)c(C#N)c3)c2=O)c1 [II-0144]	–	–	> 6.00	> 7.00	–
Cn1cc2cc(Nc3nc(=O)n(-c4cncc5ccccc45)c(=O)n3Cc3cc(F)c(F)c(C#N)c3)ccc2n1 [II-0154]	–	–	> 6.00	> 7.00	–
Cc1cncc(-n2c(=O)nc(Nc3cc4c(cc3Cl)OCC4)n(Cc3ccc(F)c(C#N)c3)c2=O)c1 [II-0156]	–	–	> 6.00	> 7.00	–
